Test results taken from patent US20260041744A1, “Methods for Treating Pompe Disease” (Amicus Therapeutics, Inc., priority 2022, published 2026).
Blank lines part the entries; values can stand above or below the compound they belong to.

Legend:
[1] = Miglustat plasma pharmacokinetics in patients, incl. renal impairment; format: in vivo, human
Method: At the recommended 260 mg dose, the mean Cmax was approximately 3 mcg/mL and the mean AUC was approximately 25 mcg*hr/mL. The mean time to reach the maximum concentration ranged from 2 hours to 3 hours.
Plasma concentrations of miglustat increased in patients with renal impairment. Accordingly, the apparent clearance of miglustat decreased with decreasing renal function. […] In some embodiments, the dosage of miglustat in patients with moderate or severe renal impairment is reduced as compared to patients with normal renal function.

rats = experiment: Sperm characteristics and fertility in rats; format: in vivo, rat
healthy adult men = experiment: Sperm parameters in healthy adult men; format: in vivo, human; details: 100 mg orally twice daily for 6 weeks
ATB200 = ATB200 (Homo sapiens, UniProt P10253); experiment: Thermostability assay using SYPRO Orange; details: pH 7.4
CIMPR = CIMPR (Homo sapiens, UniProt P11717); experiment: CIMPR affinity chromatography of rhGAA (bound vs flow-through by GAA activity); format: binding; details: CIMPR affinity column
Text: Multiple batches of the rhGAA according to the disclosure were produced in shake flasks and in perfusion bioreactors using CHO cell line GA-ATB200, the product of which is referred to as “ATB200.” Weak anion exchange (“WAX”) liquid chromatography was used to fractionate ATB200 rhGAA according to terminal phosphate and sialic acid. Elution profiles were generated by eluting the ERT with increasing amount of salt. The profiles were monitored by UV (A280 nm).
To evaluate the ability of the conventional rhGAAs in MYOZYME® and LUMIZYME® to interact with the CIMPR, the two conventional rhGAA preparations were injected onto a CIMPR affinity column (which binds rhGAA having M6P groups) and the flow through collected. The bound material was eluted with a free M6 gradient. Fractions were collected in 96-well plate and GAA activity assayed by 4MU-α-glucosidase substrate. The relative amounts of unbound (flow through) and bound (M6P eluted) rhGAA were determined based on GAA activity and reported as the fraction of total enzyme. […] Indeed, only 27% of the rhGAA in MYOZYME® and 22% of the rhGAA in LUMIZYME® contained M6P that can be productive to target it to the CIMPR on muscle cells.

Gaa KO mice = experiment: Single fiber analysis (LAMP1/LC3 co-immunofluorescence, white gastrocnemius); format: in vivo, mouse; details: mouse, in vivo
Text: FIG. 17 depicts co-immunofluorescent staining of LAMP1 (green) (see for example, “B”) and LC3 (red) (see, for example, “A”) in single fibers isolated from the white gastrocnemius of Gaa KO mice treated with a vehicle, alglucosidase alfa, or ATB200. “C” depicts clearance of autophagic debris and absence of enlarged lysosome. A minimum of 30 fibers were examined from each animal.
As a result, a significant portion of muscle fibers analyzed (36-60%) from ATB200-treated mice appeared normal or near-normal.

[2] = tested on: LOPD population (PROPEL target population); experiment: Multi-level network meta-regression (ML-NMR) indirect treatment comparison, 6MWD and FVC change from baseline at week 52; set-up: species or system human; details: base-case scenario
Method: Using patient-level data from the PROPEL randomized clinical trial (RCT) plus aggregate published data from other RCTs, Phase I/II and open label extension trials, a multi-level network meta-regression was conducted, adjusting for various baseline covariates including previous ERT duration. The base case scenario had covariates resembling the PROPEL population (naïve and ERT-experienced) and analyzed 6MWD and FVC change from baseline at 52 weeks.
An ITC providing relative effect estimates in the target population of interest (ie an LOPD population including a mix of ERT-naïve and ERT-experienced subjects as in the pivotal Phase III trial comparing Cipa+mig with Alglu [PROPEL]) was performed.
A systematic literature review (SLR) was conducted to identify relevant published clinical studies of ERTs in LOPD. Outcomes assessed were change from baseline in 6-minute walking distance (6MWD) (m) and in forced vital capacity (FVC; % predicted) at week 52, acknowledged by clinicians, HTA agencies and payers as key LOPD trial endpoints. Aggregate results on 6MWD and FVC change from baseline over time and baseline characteristics (age, gender, ethnicity, previous ERT duration, baseline 6MWD and baseline FVC) were extracted from included studies.
A multi-level network meta regression (ML-NMR) was performed, which is an extension of standard network meta-analyses (NMAs) that take into account the effect of study-level covariates, and that can be applied to any connected network with any mixture of individual patient-level data (IPD) and aggregate data. ML-NMR is an accepted method by the National Institute for Health and Care Excellence (NICE) in support of cost effectiveness analysis. Single-arm study results were matched to appropriate comparator arms of the comparative studies to allow for inclusion into the network. Mean treatment differences with associated 95% credible intervals (CrIs) were calculated for 6MWD and FVC change from baseline at week 52.
A base-case scenario was evaluated in which all covariates were set to the target population of the PROPEL trial. To study the impact of previous ERT duration on relative effects, ERT duration value was varied, keeping remaining covariate values as in the base-case scenario. A sensitivity analysis was performed by excluding all matched single-arm evidence from the network to assess its impact on the results.
Both fixed effects (FE) and random effects (RE) ML-NMR models were applied and the deviance information criteria (DIC) was used to assess goodness-of-fit of the models and to identify the appropriate model (FE or RE model) for the data. Models were implemented in a Bayesian framework using Stan with help of the R package multinma.
In the base-case scenario, the covariates were set to the baseline characteristics of the target population (ie the PROPEL trial; see Table 20), and time was set to 52 weeks.

Pompe disease patients = details: ERT-experienced patients; cited from earlier work
adult subjects with LOPD [3] = experiment: Study ATB200-07 (OLE of PROPEL): 6MWD and % predicted 6MWD; format: in vivo, human
Text: (§1) The study doses and schedule are maintained from Study ATB200-03.
(§2) Efficacy data are presented in this summary as change from the baseline of Study ATB200-03 (OLE-ES Population).

adult subjects with LOPD [4] = experiment: Study ATB200-07 (OLE): CK
adult subjects with LOPD [5] = experiment: Study ATB200-07 (OLE): sitting % predicted FVC; format: in vivo, human
Text: as §1, §2

[6] = in vivo
adult subjects with LOPD [7] = experiment: Study ATB200-07 (OLE): Hex4
[8] = human, plasma, oral, 260 mg dose

Chain of CIMPR (P11717 41-2491, species assumed): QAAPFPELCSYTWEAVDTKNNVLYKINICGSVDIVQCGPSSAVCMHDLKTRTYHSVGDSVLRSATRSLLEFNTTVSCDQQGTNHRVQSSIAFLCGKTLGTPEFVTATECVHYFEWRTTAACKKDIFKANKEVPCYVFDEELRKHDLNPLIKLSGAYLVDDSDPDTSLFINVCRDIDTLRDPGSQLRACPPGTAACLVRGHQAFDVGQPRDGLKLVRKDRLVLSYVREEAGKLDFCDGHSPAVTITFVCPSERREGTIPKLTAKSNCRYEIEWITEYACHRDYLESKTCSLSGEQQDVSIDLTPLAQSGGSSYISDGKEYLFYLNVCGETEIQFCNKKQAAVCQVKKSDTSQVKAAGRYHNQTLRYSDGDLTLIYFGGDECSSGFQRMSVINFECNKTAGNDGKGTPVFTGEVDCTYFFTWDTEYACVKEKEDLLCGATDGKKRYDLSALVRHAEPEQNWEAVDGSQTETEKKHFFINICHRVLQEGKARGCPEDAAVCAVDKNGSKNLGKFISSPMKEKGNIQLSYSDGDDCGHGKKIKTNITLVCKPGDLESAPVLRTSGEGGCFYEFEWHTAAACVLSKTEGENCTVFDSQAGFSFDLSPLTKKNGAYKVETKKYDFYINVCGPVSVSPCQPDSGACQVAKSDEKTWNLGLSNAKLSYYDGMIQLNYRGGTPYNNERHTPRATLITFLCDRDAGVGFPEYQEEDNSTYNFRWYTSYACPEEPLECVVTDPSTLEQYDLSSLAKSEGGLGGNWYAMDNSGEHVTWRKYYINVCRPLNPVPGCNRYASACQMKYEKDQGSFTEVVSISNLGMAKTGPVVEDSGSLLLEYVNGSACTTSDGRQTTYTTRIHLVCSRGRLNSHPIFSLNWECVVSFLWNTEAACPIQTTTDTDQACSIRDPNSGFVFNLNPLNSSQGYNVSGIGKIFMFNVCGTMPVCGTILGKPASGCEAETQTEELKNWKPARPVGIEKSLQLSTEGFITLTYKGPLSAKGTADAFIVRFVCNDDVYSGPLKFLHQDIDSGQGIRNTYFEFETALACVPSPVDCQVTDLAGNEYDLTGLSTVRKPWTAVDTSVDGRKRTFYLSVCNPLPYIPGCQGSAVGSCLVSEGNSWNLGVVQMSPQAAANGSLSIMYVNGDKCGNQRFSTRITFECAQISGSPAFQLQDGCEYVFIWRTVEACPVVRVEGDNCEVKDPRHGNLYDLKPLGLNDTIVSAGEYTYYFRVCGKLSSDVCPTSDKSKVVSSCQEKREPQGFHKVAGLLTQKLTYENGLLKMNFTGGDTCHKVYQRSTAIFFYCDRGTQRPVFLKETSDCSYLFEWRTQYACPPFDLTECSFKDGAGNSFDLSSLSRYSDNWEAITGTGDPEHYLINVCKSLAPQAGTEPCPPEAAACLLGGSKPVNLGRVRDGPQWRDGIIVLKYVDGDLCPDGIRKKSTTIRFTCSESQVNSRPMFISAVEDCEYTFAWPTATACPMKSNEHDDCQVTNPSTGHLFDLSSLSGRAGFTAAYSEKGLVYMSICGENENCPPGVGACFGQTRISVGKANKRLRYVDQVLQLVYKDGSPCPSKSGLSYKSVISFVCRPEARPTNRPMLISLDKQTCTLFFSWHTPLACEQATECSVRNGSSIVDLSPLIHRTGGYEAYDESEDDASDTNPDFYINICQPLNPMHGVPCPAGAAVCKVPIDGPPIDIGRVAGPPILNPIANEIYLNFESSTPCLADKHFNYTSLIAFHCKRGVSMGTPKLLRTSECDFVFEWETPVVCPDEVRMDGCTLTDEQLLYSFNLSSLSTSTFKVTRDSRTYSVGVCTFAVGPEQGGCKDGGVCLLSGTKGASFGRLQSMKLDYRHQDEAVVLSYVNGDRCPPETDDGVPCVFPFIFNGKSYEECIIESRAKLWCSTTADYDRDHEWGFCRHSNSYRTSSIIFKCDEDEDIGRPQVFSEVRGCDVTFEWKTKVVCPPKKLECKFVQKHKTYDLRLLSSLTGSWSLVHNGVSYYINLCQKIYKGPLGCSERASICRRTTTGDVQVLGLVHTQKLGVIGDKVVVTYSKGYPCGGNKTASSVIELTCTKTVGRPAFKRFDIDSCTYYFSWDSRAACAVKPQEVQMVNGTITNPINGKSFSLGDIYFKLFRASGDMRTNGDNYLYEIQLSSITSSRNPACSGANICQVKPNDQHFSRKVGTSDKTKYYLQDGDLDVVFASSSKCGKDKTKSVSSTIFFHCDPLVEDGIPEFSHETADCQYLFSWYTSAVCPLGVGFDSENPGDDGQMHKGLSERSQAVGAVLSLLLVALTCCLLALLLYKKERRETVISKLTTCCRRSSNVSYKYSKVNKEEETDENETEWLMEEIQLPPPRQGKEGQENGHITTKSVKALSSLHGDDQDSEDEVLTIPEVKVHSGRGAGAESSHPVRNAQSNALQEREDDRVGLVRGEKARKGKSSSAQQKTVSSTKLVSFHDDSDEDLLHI

- dose proportionality ([1]; 130 mg to 260 mg): linear pharmacokinetics
- AUC [1, 8]: ~25000 ng·h/mL
- Cmax [1, 8]: ~3000 ng/mL
- increase of AUC0-24 hr vs normal renal function ([1]; mild renal impairment (CLcr 60-89 mL/minute)): 21%
- increase of AUC0-24 hr vs normal renal function ([1]; moderate renal impairment (CLcr 30-59 mL/minute)): 26%
- increase of AUC0-24 hr vs normal renal function ([1]; severe renal impairment (CLcr 15-29 mL/minute)): 31%
- increase of melting temperature (Tm) of ATB200 by addition of miglustat (ATB200): ~10 °C
Compound: CCCCN1C[C@H](O)[C@@H](O)[C@H](O)[C@H]1CO [miglustat, (2R,3R,4R,5S)-1-butyl-2-(hydroxymethyl)piperidine-3,4,5-triol]
- effect on sperm characteristics and fertility (rats): negatively affects sperm characteristics (motility and morphology), thereby reducing fertility
- effect on sperm concentration, motility, morphology (healthy adult men): No effect on sperm concentration, motility, or morphology
- stabilization of ATB200 (ATB200): stabilized ATB200 at pH 7.4 in a concentration-dependent manner

- rhGAA bound to the CIMPR (fraction of total enzyme) (CIMPR; M6P eluted): 27%
- rhGAA that did not bind to the CIMPR (fraction of total enzyme) (CIMPR; flow through): 73%
Compound: MYOZYME®: alglucosidase alfa product marketed by Sanofi Genzyme; conventional rhGAA product
- single fiber appearance vs vehicle-treated mice (Gaa KO mice): did not show any significant difference as compared to vehicle-treated mice

Compound: avalglucosidase alfa: recombinant human acid α-glucosidase, avalglucosidase alfa-ngpt; CAS 1802558-87-7
- relative effect, sensitivity analysis (RCT data only), 6MWT and FVC [2]: numerically favourable versus Alglu and placebo (6MWT and FVC)
- long-term motor function by 6MWD after switching from alglucosidase alfa (Pompe disease patients): continue to experience progressive loss of motor function as assessed by 6MWD
- long-term pulmonary function by FVC after switching from alglucosidase alfa (Pompe disease patients): progressive loss of pulmonary function as assessed by FVC

Compound: cipa/mig-cipa/mig: treatment sequence: cipa/mig in PROPEL, continued cipa/mig in the open-label extension
- mean change in % predicted 6MWD from PROPEL baseline to week 104 (adult subjects with LOPD [3]; ERT-experienced patients): +3.1
- mean change in % predicted 6MWD from PROPEL baseline to week 104 (adult subjects with LOPD [3]; ERT-naïve patients): +8.6 (8.57)
- mean reduction in CK from PROPEL baseline to week 104 (adult subjects with LOPD [4]; ERT-experienced patients): -132.1 (215.74) U/L
- mean reduction in CK from PROPEL baseline to week 104 (adult subjects with LOPD [4]; ERT-naïve patients): −216.9 (243.66) U/L
- mean change in % predicted FVC from PROPEL baseline to week 104 (adult subjects with LOPD [5]; ERT-experienced patients): −0.6 (7.50)
- mean change in % predicted FVC from PROPEL baseline to week 104 (adult subjects with LOPD [5]; ERT-naïve patients): −4.8 (6.48)
- patients with treatment-emergent adverse events [6]: 98.8%
- mean reduction in Hex4 from PROPEL baseline to week 104 (adult subjects with LOPD [7]; ERT-experienced patients): -1.9 (3.22) mmol/mol
- mean reduction in Hex4 from PROPEL baseline to week 104 (adult subjects with LOPD [7]; ERT-naïve patients): −2.9 (2.45) mmol/mol
